According to paper PMC5063576, “High Potency VEGFRs/MET/FMS Triple Blockade by TAS-115 Concomitantly Suppresses Tumor Progression and Bone Destruction in Tumor-Induced Bone Disease Model with Lung Carcinoma Cells” (PLoS ONE, 2016):

Key:
[1] = test system: A549-Luc-BM1-implanted tibiae; assay: CD31 staining, microvessel density in bone lesion; format: in vivo, BALB/c nude mice; conditions: 2 weeks oral; TAS-115 100 mg/kg, cabozantinib 15, crizotinib 100, sunitinib 40 mg/kg; vs control
Protocol: On day 15, the mice were euthanized by cervical dislocation under isoflurane anesthesia, and their tibiae were collected. For CD31 staining, frozen sections (3 μm thick) were prepared using Kawamoto’s film method. Purified Rat Anti-Mouse CD31 (1:100, BD Pharmingen^TM) was detected using Simple Stain^TM Mouse MAX PO (Rat) (Nichirei) and 3,3’-diaminobenzidine (Dako, Glostrup, Denmark). For Ki-67 and TRAP staining, formalin-fixed paraffin-embedded sections (2 μm thick) were prepared. Anti-human Ki-67 Rabbit Monoclonal Antibody (1:50, Epitomics) was detected using the EnVisionTM^+ System (Dako). TRAP staining was performed using the TRAP/ALP Stain Kit (Wako Pure chemical Industries, Ltd.). To quantify each staining, whole slides were scanned under 20× magnification with the Aperio Scan-Scope XT Slide Scanner (Aperio Technologies, Inc., CA). To quantify CD31-positive microvessels as microvessel density (MVD, number/mm^2), four fields of tumor area per section excluding bone and necrotic tissue were analyzed by using Image-Pro Plus (Media Cybernetics, Inc., Carlsbad, CA). The mean values of the four areas were considered as the MVD of each animal. […] Ki-67-positive cells and total tumor cells were counted by using Image-Pro Plus. The Ki-67 index is expressed as a percentage (the number of Ki-67-positive tumor cells / the total number of the tumor cells × 100). The numbers of TRAP-positive osteoclasts were counted, and are expressed as the TRAP-positive osteoclast labeling index, (the number of TRAP-positive cells / the length of the boundary between tumor and trabecular bone (number/mm)). Cells that were TRAP-positive, had more than one nucleus, and were found on the surface of the bone, were identified as osteoclasts. The boundary length was calculated by Image-Pro Plus. All histopathological analyses were conducted in a blinded manner.

[2] = test system: FMS, ERK1/2 and AKT phosphorylation in MDBMs; assay: In vitro MDBM signaling, M-CSF-stimulated FMS phosphorylation; format: cell-based, mouse; conditions: 1 hr incubation, Western blotting
Protocol: (§1) For analysis of the expression and phosphorylation levels of FMS, MET and VEGFR2, MDBMs were cultured with hM-CSF (20000 U/mL) for 4 days (400000 cells/dish in Suspension Culture Dishes (Corning Inc., NY). The phosphorylation levels of FMS and downstream signaling molecules were then analyzed in these MDBMs following incubation for 1 hr with test compounds at the indicated concentration. The phosphorylation of MET or VEGFR2 was analyzed in these MDBMs following stimulation with rhHGF (100 ng/mL, 10 min) or rhVEGF (100 ng/mL, 5 min), respectively. After incubation, the MDBMs were harvested, the cells were lysed and target signaling proteins were detected by immunoblotting. For analysis of VEGFR2 and its phosphorylated form, the lysate was immunoprecipiated with an anti-VEGFR antibody prior to immunoblotting.

[3] = test system: VEGFR2 phosphorylation in MDBMs; assay: In vitro MDBM signaling, rhVEGF-induced VEGFR2 phosphorylation; format: cell-based, mouse; conditions: rhVEGF 100 ng/mL 5 min, immunoprecipitation and Western blotting
Protocol: as §1

[4] = molecular target: VEGFR2 (Homo sapiens, UniProt P35968); assay: In vitro kinase assay, VEGFR2; format: biochemical; conditions: assay as described previously [16]
Protocol: Enzyme inhibition studies were performed using LANCE® Ultra TR-FRET assay technology. Briefly, 0.03 μg/mL dephospho-rhFMS and 100 nM ULightTM-poly GT (4:1) (PerkinElmer) were mixed and incubated for 40 min at 25°C in 10 μL of reaction mixture containing 100 μM ATP, 15 mM tris (hydroxymethyl) aminomethane (Tris (pH 7.5)), 0.01% (v/v) Tween 20, 5 mM MgCl2, 2 mM dithiothreitol and various concentrations of the test compound. […] By referring to the TR-FRET signals of positive (no inhibitor) and negative (EDTA was added before the reaction was started) control wells, the percent inhibition of each well was calculated and the half-maximal inhibitory concentration (IC50) value was determined using a four-parameter sigmoidal equation. The assay of MET and VEGFR2 kinase activity was performed as described previously.

[5] = Body weight change in the bone disease model; format: in vivo, BALB/c nude mice; conditions: 4 weeks of treatment; TAS-115 200 mg/kg, crizotinib 100 mg/kg, sunitinib 40 mg/kg with crizotinib 100 mg/kg, oral once daily
Protocol: Changes in body weight (BW) during the dosing period were determined using body weight change (BWC; %) as an indicator, which was calculated using the following formula: BWC; % = 100 × ((BW on each measurement day)–(BWday 0)) / (BWday 0). BWday 0 is the BW on the allocation day. The schedule for the in vivo study is depicted in the Supporting Information (S1 Fig).

[6] = test system: MET phosphorylation in MDBMs; assay: In vitro MDBM signaling, rhHGF-induced MET phosphorylation; format: cell-based, mouse; conditions: rhHGF 100 ng/mL 10 min, Western blotting
Protocol: as §1

[7] = test system: M-CSF dependent bone marrow macrophages (MDBMs); assay: In vitro osteoclast differentiation assay (TRAP activity); format: cell-based, mouse; conditions: MDBMs with hM-CSF and rhsRANKL for 4 days
Protocol: To prepare macrophage colony-stimulating factor (M-CSF) dependent bone marrow macrophages (MDBMs), bone marrow cells were obtained from the femurs of male BALB/c mice (CLEA Japan) and adherent cells were cultured with human M-CSF (hM-CSF; 10000 U/mL) for 6 days. MDBMs were collected and cultured with hM-CSF (10000 U/mL) and recombinant human soluble RANKL (rhsRANKL)-GST (5 nM) for 4 days (25000 cells/well in a 96 well flat plate) for induction of differentiation into osteoclasts. Test compounds were then added to the culture media at the indicated concentration. TRAP activities were measured using the commercially available TRACP and ALP Assay Kit (TAKARA BIO INC).

[8] = test system: FMS phosphorylation in human acute monocytic THP-1 leukemia cells; assay: M-CSF-induced FMS phosphorylation in THP-1 cells (immunoblotting); format: cell-based; conditions: 2 h, 120 min compound incubation, 30 ng/mL M-CSF, read-out: cellular IC50 against M-CSF-induced FMS phosphorylation
Protocol: Supplementary file pone.0164830.s005.tif: S5 Fig The inhibition of the FMS signaling pathway in human acute monocytic leukemia THP-1 cells by TAS-115. […] After incubation with the compounds for 120 min, THP-1 cells were stimulated with 30 ng/mL of M-CSF and lysed at 1 min post M-CSF stimulation. Specific proteins in the cell lysates were detected using immune blotting and were quantified using Multi Gauge Ver 3.2 (FUJIFILM). IC50 values were calculated using Xlfit 5.3.0.8 (CTC Life Science Corporation, Tokyo, Japan). (TIF) Click here for additional data file.

VEGFR2, sequence (P35968 20-1356, species assumed): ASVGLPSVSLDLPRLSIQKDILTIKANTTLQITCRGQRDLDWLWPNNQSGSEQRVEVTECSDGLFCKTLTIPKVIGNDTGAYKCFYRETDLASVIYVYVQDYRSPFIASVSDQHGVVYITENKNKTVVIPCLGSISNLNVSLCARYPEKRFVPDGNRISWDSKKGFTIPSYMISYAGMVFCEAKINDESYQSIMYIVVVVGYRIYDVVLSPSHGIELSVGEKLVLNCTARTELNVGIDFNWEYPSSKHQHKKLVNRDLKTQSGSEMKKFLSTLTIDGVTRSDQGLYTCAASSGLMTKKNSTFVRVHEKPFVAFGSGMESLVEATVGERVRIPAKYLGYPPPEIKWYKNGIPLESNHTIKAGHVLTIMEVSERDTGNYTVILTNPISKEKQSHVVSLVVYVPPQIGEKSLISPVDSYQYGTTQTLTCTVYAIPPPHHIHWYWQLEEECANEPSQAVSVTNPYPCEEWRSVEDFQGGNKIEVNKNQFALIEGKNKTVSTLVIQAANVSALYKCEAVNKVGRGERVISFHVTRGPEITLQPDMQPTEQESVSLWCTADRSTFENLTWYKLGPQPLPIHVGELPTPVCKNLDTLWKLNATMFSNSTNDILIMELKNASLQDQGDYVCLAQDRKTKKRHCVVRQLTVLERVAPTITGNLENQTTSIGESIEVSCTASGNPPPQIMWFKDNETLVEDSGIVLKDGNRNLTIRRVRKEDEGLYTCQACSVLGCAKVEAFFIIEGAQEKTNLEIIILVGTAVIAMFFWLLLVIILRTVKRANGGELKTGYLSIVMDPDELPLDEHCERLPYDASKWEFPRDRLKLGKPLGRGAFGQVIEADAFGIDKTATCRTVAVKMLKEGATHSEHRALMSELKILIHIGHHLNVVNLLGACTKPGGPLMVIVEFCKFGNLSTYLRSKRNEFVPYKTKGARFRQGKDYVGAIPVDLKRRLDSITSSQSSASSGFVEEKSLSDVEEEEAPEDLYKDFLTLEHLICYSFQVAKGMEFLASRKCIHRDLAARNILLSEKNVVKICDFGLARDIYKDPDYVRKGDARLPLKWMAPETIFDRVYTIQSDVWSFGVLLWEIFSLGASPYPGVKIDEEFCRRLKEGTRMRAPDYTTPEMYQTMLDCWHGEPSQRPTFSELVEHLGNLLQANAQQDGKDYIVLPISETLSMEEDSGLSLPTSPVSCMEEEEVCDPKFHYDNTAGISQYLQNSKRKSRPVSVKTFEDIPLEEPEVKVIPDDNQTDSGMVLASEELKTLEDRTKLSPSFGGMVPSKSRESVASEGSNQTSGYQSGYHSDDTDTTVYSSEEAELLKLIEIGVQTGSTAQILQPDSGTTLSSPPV

In the case of CNC(=O)c1cc2c(Oc3ccc(NC(=S)NC(=O)Cc4ccccc4)cc3F)ccnc2cc1OC [TAS-115, 4-[2-fluoro-4-[[[(2-phenylacetyl)amino]thioxomethyl]amino]-phenoxy] -7-methoxy-N-methyl-6-quinolinecarboxamide], the “microvessel density (MVD) within the tumor area in the bone lesion” value [1] is reported as “significantly reduced”, the “concentration markedly inhibiting M-CSF-stimulated phosphorylation of FMS, ERK1/2 and AKT” value [2] is reported as “greater than 0.03 μM” and the “concentration inhibiting the phosphorylation of VEGFR2” value [3] is reported as “greater than 0.03 μM”. For the same compound, the IC50 [4] was 30 nM, the “effect on body weight” value [5] was “did not cause body weight loss” and the “concentration inhibiting the phosphorylation of MET” value [6] was “greater than 0.03 μM”. The “concentration that potently inhibited / markedly affected RANKL and M-CSF-induced mouse osteoclast formation” value [7] was 0.3 µM and the IC50 [8] was 12 nM.
